Measurements reported in US5208344A, “Naphthalenepropionic acid derivatives as anti-inflammatory/antiallergic agents” (American Home Products Corporation, priority 1991, dated 1993).

Tests used:
Format in all cases: cell-based
5-lipoxygenase [1] = target: T1, 5-lipoxygenase (Rattus norvegicus, UniProt P12527); assay: inhibition of 5-HETE synthesis by rat glycogen elicited polymorphonuclear leukocytes; conditions: rat PMN; for IC50: read-out: IC50 (inhibition of 5-LO, as 5-HETE); for inhibition at 10 µM: negative = potentiation of 5-HETE synthesis
T1 construct: Peritoneal PMN are obtained from female Wistar rats (150-250 g); endogenous in cells; host or cells: rat glycogen-elicited peritoneal polymorphonuclear leukocytes, intact
T1 sequence (P12527 1-673): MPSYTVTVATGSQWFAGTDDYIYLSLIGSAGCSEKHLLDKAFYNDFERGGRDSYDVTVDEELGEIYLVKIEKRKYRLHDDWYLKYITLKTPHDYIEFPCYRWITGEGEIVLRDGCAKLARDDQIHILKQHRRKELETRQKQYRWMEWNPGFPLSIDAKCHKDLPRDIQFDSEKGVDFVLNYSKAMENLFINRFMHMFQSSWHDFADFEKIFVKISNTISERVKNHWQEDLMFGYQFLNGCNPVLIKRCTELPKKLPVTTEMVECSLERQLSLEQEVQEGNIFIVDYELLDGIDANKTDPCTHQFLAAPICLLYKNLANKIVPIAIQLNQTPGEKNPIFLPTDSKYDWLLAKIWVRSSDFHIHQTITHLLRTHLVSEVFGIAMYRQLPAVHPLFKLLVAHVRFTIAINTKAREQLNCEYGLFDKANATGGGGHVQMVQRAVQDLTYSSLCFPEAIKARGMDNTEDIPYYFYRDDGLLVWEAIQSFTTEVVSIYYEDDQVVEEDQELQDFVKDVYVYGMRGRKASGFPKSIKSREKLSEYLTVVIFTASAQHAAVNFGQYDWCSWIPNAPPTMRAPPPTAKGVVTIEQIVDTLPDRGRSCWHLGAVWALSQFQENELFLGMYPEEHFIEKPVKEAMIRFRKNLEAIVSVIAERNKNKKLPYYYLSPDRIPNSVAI
Method: The assay of this Example measures the ability of the compounds of the invention to inhibit the synthesis of 5-HETE by rat glycogen elicited polymorphonuclear leukocytes.
(§1) Peritoneal PMN are obtained from female Wistar rats (150-250 g) that received an i.p. injection of 6% glycogen (10 ml). After 24 hours, rats are killed by CO2 asphysiation and peritoneal cells are harvested by peritoneal lavage using Ca^++ and MG^++ free Hanks' balanced salt solution (HBSS). The peritoneal exudate is centrifuged at 400 g for 10 minutes. After centrifugation, the lavaged fluid is removed and the cell pellet is resuspended in HBSS containing Ca^++ and MG^++ and 10 mM L-cysteine at a concentration of 2×10^7 cells/ml. To 1 ml portions of cell suspension, test drugs or vehicle are added and incubated at 37° C. for 10 minutes. Following this preincubation, the calcium ionophore (10 μM), a23187, is added together with 0.5 μM [14 C] arachidonic acid and further incubated for 10 minutes. The reaction is stopped by the addition of ice cold water (3 ml) and acidifying to pH 3.5. Lipoxygenase products are then extracted twice into diethyl ether. The pooled ether extracts are evaporated to dryness under nitrogen and the residue is redissolved in a small volume of methanol and spotted on aluminum backed pre-coated thin layer chromatographic plates. The samples are then cochromatographed with authentic reference 5-HETE in the solvent system - hexane: ether: acetic acid (50:50:3). After chromatography, the areas associated with 5-HETE standard are identified by autoradiography, cut out and quantitated by liquid scintillation.

cyclooxygenase = assay: inhibition of synthesis of cyclooxygenase products TxB2 and PGE2 (rat polymorphonuclear leukocytes); conditions: rat PMN; for IC50: read-out: IC50 (inhibition of CO, as PGE2); for % Inhibition of CO (as PGE2): negative = potentiation of PGE2 synthesis
Method: as §1
However, in order to determine cyclooxygenase activity, the samples are cochromatographed with authentic reference TxB2 and PGE2 in the solvent system ethyl acetate: formic acid (80:1) and the upper phase of ethyl acetate: isooctane: acetic acid: water (110:50:20:100). After chromatography, the areas associated with the TxB2 and PGE2 standards are identified by autoradiography, cut out and quantitated by liquid scintillation techniques.

5-lipoxygenase [2] = target: T2, 5-lipoxygenase (Homo sapiens, UniProt P09917); assay: inhibition of 5-lipoxygenase in human whole blood (LTB4); conditions: human whole blood
T2 construct: Blood is obtained in 50-100 ml quantities from male donors; endogenous in cells; host or cells: human whole blood (leukocytes) from male donors
T2 sequence (P09917 1-674): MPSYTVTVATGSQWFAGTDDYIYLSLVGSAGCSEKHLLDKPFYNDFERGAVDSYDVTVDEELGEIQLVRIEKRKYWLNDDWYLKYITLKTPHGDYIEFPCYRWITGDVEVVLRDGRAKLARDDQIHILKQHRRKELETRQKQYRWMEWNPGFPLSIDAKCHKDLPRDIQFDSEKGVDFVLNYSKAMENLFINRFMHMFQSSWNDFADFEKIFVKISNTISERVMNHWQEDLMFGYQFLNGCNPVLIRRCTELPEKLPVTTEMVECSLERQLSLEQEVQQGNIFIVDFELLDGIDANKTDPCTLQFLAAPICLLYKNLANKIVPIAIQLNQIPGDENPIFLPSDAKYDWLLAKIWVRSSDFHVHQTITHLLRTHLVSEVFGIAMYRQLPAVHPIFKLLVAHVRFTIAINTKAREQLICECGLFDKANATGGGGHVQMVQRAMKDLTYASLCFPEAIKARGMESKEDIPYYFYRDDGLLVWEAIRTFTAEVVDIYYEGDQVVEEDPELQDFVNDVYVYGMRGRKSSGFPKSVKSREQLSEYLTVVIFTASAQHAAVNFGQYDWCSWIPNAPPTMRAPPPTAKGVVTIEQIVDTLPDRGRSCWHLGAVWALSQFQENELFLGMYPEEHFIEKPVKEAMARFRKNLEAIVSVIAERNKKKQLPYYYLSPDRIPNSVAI
Method: The assay of this Example measures the ability of the compounds tested to inhibit 5-lipxygenase in human whole blood.
Blood is obtained in 50-100 ml quantities from male donors. White blood cell counts and differentials are made. Two ml of blood are placed in a 15 ml polypropylene test tube. Compounds are solubilized in dimethylsulfoxide and diluted 1:10 in 10% bovine serum albumin in phosphate buffered saline, pH 7.4 resulting in a final dimethylsulfoxide concentration of 0.1% in the blood. Then, compounds are added to the blood in a shaking water bath at 37° C. for 10 minutes prior to the addition of 30 μM calcium ionophore (A23187; Sigma). After ionophore administration, whole blood samples are mixed and incubated for 20 minutes at 37° C. in a shaking water bath. Incubation is terminated by placing samples in an ice bath and immediately adding ethylene glycol-bis-(β-aminoethyl ether)-N,N,N',N'-tetraacetic acid (10 mM). Samples are mixed and centrifuged at 1200×g for 15 minutes at 4° C. Preparation of samples for evaluation by RIA or ELISA is carried out by the following protocol. Plasma is removed from sample tubes, placed in 15 ml polypropylene test tubes containing 8 ml methanol, and then vortexed to precipitate protein. Samples are stored at -70° C. overnight. The next day, samples are centrifuged at 200×g for 15 minutes at 4° C. to pellet the precipitate. Samples are dried in a Savant speed vac concentrator, reconstituted to original volume with ice cold RIA or ELISA buffer, and stored at -70° C. until assayed. The assay for eicosanoids (LTB4, TxB2, and PGE2) is performed as described by the manufacturer of the [^3 H]-RIA kit or ELISA kit (LTB4 -Amersham, TxB2 and PGE2 - Caymen Chemical).
The total eicosanoid level in 2 ml of blood is calculated and reported as ng/10^6 neutrophils. Significance is determined by a one-way analysis of variance with least significant difference (LSD) comparisons to control (p≤0.05) and IC50 's (μM) are determined by regression analysis (Finney, 1978). Drug effects are expressed as percent change form control values.
Compounds tested in vitro are solubilized in dimethylsulfoxide and diluted 1:10 in 10% bovine serum albumin in phosphate buffer saline resulting in a final dimethylsulfoxide concentration of 0.1% in the blood.

[3] = read-out: % Inhibition of 5-LO (as 5-HETE)

inhibition at 10 µM (5-lipoxygenase [1]; [3]) [%] | SMILES | % Inhibition of CO (as PGE2) (cyclooxygenase; 10 μM) [%] | also measured
– | CC(C(=O)O)c1ccc2cc(OCc3ccc4ccc(Cl)cc4n3)ccc2c1 (stereo not drawn) [Example 18, α-Methyl-6-[(7-chloro-2-quinolinyl)-methoxy]-2-naphthaleneacetic acid] | – | IC50 (5-lipoxygenase [1]): 11.4 µM; IC50 (cyclooxygenase): > 50 µM
100 | C[C@H](C=O)c1ccc2cc(OCc3ccc4ccccc4n3)ccc2c1 [Example 27, (S)-α-methyl-6-(2-quinolinylmethoxy)-2-naphthaleneacetaldehyde] | -62 | –
– | C[C@@H](C(=O)O)c1ccc2cc(OCc3ccc4ccccc4n3)ccc2c1 [Example 8, R-(-)-α-Methyl-6-(2-quinolinylmethoxy)-2-naphthaleneacetic acid] | – | inhibition at 0.1 µM (5-lipoxygenase [1]; 0.1 μM, read-out: % Inhibition of 5-LO (as 5-HETE)): 33%; % Inhibition of CO (as PGE2) (cyclooxygenase; 0.1 μM): -7%
86 | CC(C(=O)O)c1ccc2cc(OCc3csc(-c4ccccc4)n3)ccc2c1 (stereo not drawn) [Example 9, α-Methyl-6-[(2-phenyl-4-thiazolyl)methoxy]-2-naphthaleneacetic acid] | -11 | –
87 | CC(C)(C(=O)O)c1ccc2cc(OCc3ccc4ccccc4n3)ccc2c1 [Example 22, α,α-Dimethyl-6-(2-quinolinylmethoxy)-2-naphthaleneacetic acid] | -28 | –
91 | COC(=O)[C@@H](C)c1ccc2cc(OCc3ccc4ccccc4n3)ccc2c1 [Example 29, (S)α-methyl-6-(2-quinolinylmethoxy)-2-naphthaleneacetic acid methyl ester] | -17 | inhibition at 50 µM (5-lipoxygenase [2]): 24%
90 | CC(C(=O)O)c1ccc2cc(OCc3nc4ccccc4s3)ccc2c1 (stereo not drawn) [Example 5, α-Methyl-6-(2-benzothiazolylmethoxy)-2-naphthaleneacetic acid] | -35 | –
92 | CONC(=O)C(C)c1ccc2cc(OCc3ccc4ccccc4n3)ccc2c1 (stereo not drawn) [Example 30, N-methoxy-α-methyl-6-(2-quinolinylmethoxy)-2-naphthaleneacetamide] | -27 | inhibition at 50 µM (5-lipoxygenase [2]): 13%
100 | CC(C(=O)O)c1ccc2cc(OCc3ccc4ccccc4c3)ccc2c1 (stereo not drawn) [Example 6, α-Methyl-6-(2-naphthalenylmethoxy)-2-naphthaleneacetic acid] | -15 | –
97 | C[C@H](CO)c1ccc2cc(OCc3ccc4ccccc4n3)ccc2c1 [Example 26, (S)-β-methyl-6-(2-quinolinylmethoxy)-2-naphthalene ethanol] | 5 | inhibition at 100 µM (5-lipoxygenase [2]; 100 μM): 8%
95 | O=C(O)Cc1ccc2cc(OCc3ccc4ccccc4n3)ccc2c1 [Example 21, 6-(2-Ouinolinylmethoxy)-2-naphthaleneacetic Acid] | – | IC50 (cyclooxygenase): > 250 µM
82 | CC(C(=O)O)c1ccc2c(Br)c(OCc3ccc4ccccc4n3)ccc2c1 (stereo not drawn) [Example 19, α-Methyl-5-bromo-6-(2-quinolinylmethoxy)-2-naphthaleneacetic acid] | -21 | –
48 | CCCCCOc1ccc2cc(C(C)C(=O)O)ccc2c1 (stereo not drawn) [Example 12, α-Methyl-6-(pentyloxy)-2-naphthaleneacetic acid] | -13 | –
81 | CC(C)=CCOc1ccc2cc(C(C)C(=O)O)ccc2c1 (stereo not drawn) [Example 14, α-Methyl-6-(3-methyl-2-butenoxy)-2-naphthaleneacetic acid] | -15 | –
75 | CC(C(=O)N(C)O)c1ccc2cc(OCc3ccc4ccccc4n3)ccc2c1 (stereo not drawn) [Example 23, N-Hydroxy-α-N-dimethyl-6-(2-quinolinylmethoxy)-2-naphthaleneacetamidedihydrate] | 17 | inhibition at 5 µM (5-lipoxygenase [2]; 5 μM, read-out: % Inhibition of LTB4): 45%
– | COC(=O)C(C)c1ccc2cc(OCc3ccc4ccccc4n3)ccc2c1 (stereo not drawn) [Example 28, α-Methyl-6-(2-quinolinylmethoxy)-2-naphthaleneacetic acid methyl ester] | – | IC50 (5-lipoxygenase [1]): 0.43 µM; IC50 (cyclooxygenase): > 10 µM
89 | CC(C(=O)O)c1ccc2cc(OCC=Cc3ccccc3)ccc2c1 (stereo not drawn) [Example 20, α-Methyl-6-[(3-phenyl-2-propenyl)oxy]-2-naphthaleneacetic acid] | 14 | –
100 | Cc1ccc(S(=O)(=O)NC(=O)C(C)c2ccc3cc(OCc4ccc5ccccc5n4)ccc3c2)cc1 (stereo not drawn) [Example 25, α-Methyl-N-[(4-methylphenyl)sulfonyl]-6-(2-quinolinylmethoxy)-2-naphthaleneacetamide] | -103 | inhibition at 25 µM (5-lipoxygenase [2]; 25 μM): 45%
